From publication PMC3368601 (Chemistry & biology, 2011)

Target: AAK1 (adaptor-associated kinase 1) (Homo sapiens, UniProt Q2M2I8)
Experiment: ADP-Glo kinase assay with recombinant AAK1 and AP2M1 peptide
Assay type: biochemical

AAK1 (adaptor-associated kinase 1), sequence (Q2M2I8 46-315 limits assumed): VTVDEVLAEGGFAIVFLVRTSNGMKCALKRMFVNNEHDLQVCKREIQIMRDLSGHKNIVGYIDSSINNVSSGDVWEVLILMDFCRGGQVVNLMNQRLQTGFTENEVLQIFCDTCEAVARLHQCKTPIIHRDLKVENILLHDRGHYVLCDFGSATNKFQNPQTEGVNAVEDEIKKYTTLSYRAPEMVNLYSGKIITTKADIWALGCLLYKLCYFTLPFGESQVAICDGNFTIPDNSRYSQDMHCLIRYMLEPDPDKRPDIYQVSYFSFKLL

**Q.** COC(=O)C1(O)C[C@H]2O[C@]1(C)n1c3ccccc3c3c4c(c5c6ccccc6n2c5c31)C(=O)NC4 (stereo partly shown) [compound 1, K252a] was tested. Which IC50 did it give?
**A.** < 10 nM
